This is an account of results in patent publication US8986701B2, “Enzyme prodrug cancer therapy selectively targeted to tumor vasculature and methods of production and use thereof” (The Board of Regents of the University of Oklahoma, priority 2003, dated 2015).

Series [1] relates to HAAE-1 endothelial cells. Put plainly: In vitro enzyme prodrug cytotoxicity (Alamar Blue), endothelial cells. Type of series: cell-based, human. As to conditions: with saturating FP; 10 and 100 μM SeMet; days 2 and 3; 500 μM L-methionine. On the procedure: (§1) In Vitro Enyzme Prodrug Cytotoxicty to Cells: The experiment lasted 3 days, using the same cells for each of the days (day 0, 1, 2, and 3). Cells were grown and plated in 24-well plates with respective growth media using the same procedure as for the FP binding assay (see above). […] On day 0, a saturating concentration of FP was diluted in medium was added and incubated for 2 hours at 37° C. The plates were washed, and medium containing SeMet varying from 0 to 500 μM was added. The Alamar Blue assay was performed on all wells on day 0. […] The solution was transferred to an opaque 96-well plate, and the fluorescence was read at 590 nm using excitation at 530 nm. The blank consisted of wells containing only medium (no cells). After the fluorescence reading, the plates were washed, replaced with fresh medium, and then placed in incubator. The readings were taken every 24 hours for the duration of the experiment. […] The ability of the enzyme prodrug system to eliminate human endothelial cells and breast cancer cells was evaluated using cells grown in vitro and plated on 24-well plates. […] Each of the cell lines in question metabolized the Alamar Blue to produce a fluorescence that was measured to quantify total cell viability. For each day, the fluorescence data from the Alamar Blue assay was expressed as a percentage of the fluorescence for the cells with no FP and 0 μM SeMet (control). […]
On the technique in general: Resazurin is reduced to fluorescent resorufin, in cell work by metabolically active cells.

Series [2] deals with MDA-MB-231 breast cancer cells. The series can be described thus: In vitro enzyme prodrug cytotoxicity (Alamar Blue), MDA-MB-231. As to conditions: 500 μM L-methionine. Type of series: cell-based, human. The method, then:
as §1

Series [3] concerns MCF-7 breast cancer cells. Put plainly: In vitro enzyme prodrug cytotoxicity (Alamar Blue), MCF-7. The class given is cell-based, human. The method, then:
as §1

For another series, the system named is endothelial cells. As to conditions: van Heerde et al., 1994a and b; read-out: Kd, literature values of annexin V binding alone to endothelial cells; cited from earlier work.
The conditions of series [4]: L-methioninase from P. putida; Esaki and Soda 1987; cited from earlier work.
The subject of series [5] is human brain tumor xenografts. As to conditions: cited from earlier work.
Series [6] has as its system PS exposed on HAAE-1 aorta endothelial cells. Put plainly: Fusion protein equilibrium binding assay, endothelial cells. As to conditions: specific binding (total minus non-specific without Ca2+), biotin-labeled FP, no H2O2, read-out: dissociation constant (Kd). Also noted: species or system human. On the procedure: (§2) Fusion Protein Binding Assay: Endothelial cells were grown to 70-80% confluence in T-75 flasks. Cells were transferred to 24-well culture plates (5×10^4 cells/well) and grown to 80-85% confluence. Cells were fixed to the plate using 0.25% glutaraldehyde in binding buffer (PBS with 2 mM Ca^2+). Excess aldehyde groups were quenched using 50 mM NH4Cl in binding buffer. Varying concentrations of biotinylated FP were diluted in binding buffer containing 0.5% BSA and incubated at 37° C. for 2 hours. After washing with binding buffer with 0.5% BSA, streptavidin-HRP was added at 2 μg/ml and incubated at room temperature for 1 hour. Following washing with binding buffer, HRP was measured by adding the chromogenic substrate O-phenylenediamine (0.4 mg/ml) and hydrogen peroxide (0.012%) in phosphate-citrate buffer. After 30 minutes at room temperature in the dark, the solution was transferred to a transparent 96-well plate, and the absorbance was read at 450 nm on a microtiter plate reader. […] To determine non-specific binding, the same procedure was performed with no Ca^2+ and 5 mM EDTA in the binding buffer. […]
(§3) Binding of Fusion Protein: The ability of the Meth-AnnV FP to bind to human endothelial cells and breast cancer cells with PS exposed on the cell surface was evaluated by equilibrium binding experiments in which increasing concentrations of biotin-labeled FP were used. […]

For another series, the system named is MDA-MB-231 cells. The series can be described thus: Binding stability assay, MDA-MB-231. The class given is cell-based, human. On the procedure:
(§4) Binding Stability Assay: To assess how long the FP remains bound to the surface of the endothelial cells, a modified binding assay was used. Cells on 24-well plates were first incubated for 2 hours at 37° C. in a saturating concentration of biotinylated FP (50 nM) in complete growth medium with 2 mM Ca^2+. Then, the cells were fixed either at day 0, 1, 2 or 3 with 0.25% glutaraldehyde in binding buffer. Excess aldehyde groups were quenched by incubation in a 50 mM NH4Cl in binding buffer. The binding of FP was then quantitated using the same procedure used in the FP binding assay (see above).
(§5) Binding Stability: To assess how long the FP remains bound to the surface of the endothelial cells, a modified binding assay was used. Cells on 24-well plates were first incubated for 2 hours at 37° C. in a saturating concentration of biotinylated FP (50 nM) in complete growth medium with 2 mM Ca^2+. […] The binding of FP was then quantified using the same procedure used in the equilibrium FP binding assay. […] For each cell line, the slope by linear regression of the absorbance/RFU versus time data was obtained, with results as follows: 3.07×10^−5 per day for the endothelial cells (HAAE-1), 4.63×10^−5 per day for the MCF-7 cells, and 5.38×10^−5 per day for the MDA-MB-231 cells. Thus, the rate of change of absorbance/RFU was the lowest for the endothelial cells.

Series [7] can be described thus: Storage stability of L-methioninase activity in lyophilized form. Type of series: physicochemical. As to conditions: lyophilized form at −80° C.
The test system of the next series is MCF-7 cells. Put plainly: Binding stability assay, MCF-7. The class given is cell-based, human. On the procedure: as §4, §5
A short description of series [8]: L-methioninase enzyme activity with L-methionine as substrate. Type of series: biochemical. The method, then: Protein Content and Enzymatic Activity Determination: The Bradford assay from Bio-Rad (Hercules, Calif.) was used for all protein determinations throughout the purification using bovine serum albumin (BSA) as the standard. Samples were analyzed by denaturing gel electrophoresis using the SDS-PAGE method with Coomassie blue staining (Laemmli, 1970).

Series [9] concerns PS exposed on MDA-MB-231 breast cancer cells. Put plainly: Fusion protein equilibrium binding assay, MDA-MB-231. More on the design: species or system human. As to conditions: specific binding, biotin-labeled FP, no H2O2, read-out: dissociation constant (Kd). On the procedure: as §2, §3
In series [10] the test system is PS exposed on MCF-7 breast cancer cells. Put plainly: Fusion protein equilibrium binding assay, MCF-7. Also noted: species or system human. As to conditions: specific binding, biotin-labeled FP, no H2O2, read-out: dissociation constant (Kd). On the procedure:
as §2, §3

Series [11] deals with HAAE-1 endothelial cells. The series can be described thus: Binding stability assay, endothelial cells. Type of series: cell-based, human. On the procedure: as §4, §5
[12] abbreviates: 50 nM biotinylated FP, days 0-3, 500 μM L-methionine.
Where [13] appears, read: period of the experiment 3 days.

By Kd is commonly meant the equilibrium constant for the complex coming apart.

Turning to `C[Se]CC[C@H](N)C(=O)O` [SeMet, selenomethionine], the “cell killing (cell viability, Alamar Blue) vs same SeMet without FP” value in the series on HAAE-1 endothelial cells [1] is “Significant cell killing”; in series [2] (with saturating FP, 10 and 500 μM SeMet, days 1, 2 and 3), “significant killing”; in series [3] (with saturating FP, day 2 with 500 μM SeMet, day 3 with 100 and 500 μM SeMet, 2000 μM L-methionine) it was “significant cell killing”. Also, in series [3] (no FP, 500 μM SeMet, day 3, p<0.05), the “cell viability vs control, SeMet by itself” value is reported as “significantly lower”.
“annexin V: Ca2+-dependent anionic phospholipid binding protein; literature comparator for binding”: the Kd in the series with endothelial cells was 2.7 to 15.5 nM.
Consider “L-methionine-α-deamino-γ-mercaptomethane-lyase [L-methioninase]”, for which the “relative reactivity for DL-selenomethionine substrate versus L-methionine substrate” value in series [4] is reported as 2.8 times. The “tumor regression, share of animals” value in series [5] (after a 10-day period, same combined treatment) was “one-third”. Also, the “tumor stasis, share of treated animals” value in series [5] (within four days, 44 mg/kg per day i.p. with homocystine and diet restricted in methionine, homocysteine, choline) is 100%.
Consider “FP: Fusion protein of Pseudomonas putida L-methioninase linked by a flexible linker to human annexin V, SEQ ID NO:2”, for which the Kd in [6] was 1.7 ± 0.6 nM; in series [9], 2.2 ± 1.2 nM; in series [10] it was 1.9 ± 1.2 nM. The “slope by linear regression of absorbance/RFU versus time” value in the series on MDA-MB-231 cells (setting [12]) is 5.38×10^−5 per day; in the series on MCF-7 cells (50 nM biotinylated FP, days 0-3, 2000 μM L-methionine) it was 4.63×10^−5 per day; in the series on HAAE-1 endothelial cells [11] (setting [12]), 3.07×10^−5 per day. Also, the “duration FP stays bound to the cells” value in the series with MDA-MB-231 cells (setting [13]), with MCF-7 cells (setting [13]) and in the series on HAAE-1 endothelial cells [11] (setting [13]) was “at least 3 days” each time. In addition, the “cell viability when FP added, no SeMet present” value in series [2] (no SeMet) is on record as “significant decrease in cell viability”. In series [7], the “L-methioninase activity on storage” value was “remained relatively constant”. Moreover, in series [8] (lyophilized FP), the methioninase specific activity is reported as 1.0 U/mg of protein. Moreover, the Specific activity in series [8] (purification step: After lyophilized) is given as 1.04 U/mg.
